Experimental data from patent US5340801A, “Compounds having cholecystokinin and gastrin antagonistic properties” (Rhone-Poulenc Rorer Pharmaceuticals Inc., priority 1991, dated 1994).
*1 amine or outer side, *2 acyl side, *3 side chain or, on linkers, in order; H or OH if unused. Where a SMILES comes first, the peptide text is derived from it. [ ]: non-standard residue; d: D form. The star is where a group is joined. Hyp = O=C(O)[C@@H]1C[C@@H](O)CN1; βNA = c1ccc2cc(N*)ccc2c1; 2Abz = Nc1ccccc1C(=O)O; CO = O=C([*:1])[*:2]; Bn = c1ccc(C*)cc1

Legend:
CCK-A receptor = molecular target: T1, CCK-A receptor (Rattus norvegicus, UniProt P30551); assay: CCK-A Receptor Binding Assay; details: rat pancreas membranes, displacement of 3H-L-364,718 (0.2 nM), 37° C., 30 minutes; read-out: IC50 CCK-A (In Vitro Binding Data)
T1 construct: from tissue; host or cells: rat (Sprague-Dawley) pancreas membrane homogenate
T1 sequence (P30551 1-444): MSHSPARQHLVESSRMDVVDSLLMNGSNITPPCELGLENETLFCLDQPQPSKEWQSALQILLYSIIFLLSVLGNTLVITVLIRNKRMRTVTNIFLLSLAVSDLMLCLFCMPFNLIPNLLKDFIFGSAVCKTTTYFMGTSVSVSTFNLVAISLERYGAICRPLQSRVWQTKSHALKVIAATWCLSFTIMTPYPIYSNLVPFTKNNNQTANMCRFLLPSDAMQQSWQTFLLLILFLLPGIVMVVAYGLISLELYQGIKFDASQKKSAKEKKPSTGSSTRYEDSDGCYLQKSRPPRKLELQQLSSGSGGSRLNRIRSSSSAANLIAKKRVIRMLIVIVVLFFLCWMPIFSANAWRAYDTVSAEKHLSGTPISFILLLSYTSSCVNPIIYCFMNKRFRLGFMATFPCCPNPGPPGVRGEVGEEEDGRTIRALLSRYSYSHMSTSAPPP
Text: (§1) The effectiveness of the compounds of this invention as gastrin or cholecystokinin antagonists may be determined by the following pharmacologic tests which evaluate the gastrin and cholecystokinin antagonist activity of said compounds. The CCK-A Receptor Binding Assay and the Gastrin Receptor Binding Assay are standard test procedures. The CCK-A Receptor Binding Assay is essentially that of Chang, et al., "Characterization of the Binding of [^3 H]-(±)-L-364,718: A New Potent, Nonpeptide Cholecystokinin Antagonist Radioligand Selective for Peripheral Receptors", Molecular Pharmacology, 30: 212-217 (1986). The Gastrin Receptor Binding Assay is essentially that of Chang, et al., "Characterization of [^3 H]Pentagastrin Binding in Guinea Pig Gastric Glands - An Alternative Convenient Ligand for Receptor Binding Assay", Biochemical and Biophysical Research Communications, 134 (2): 895-899 (1986).
CCK-A Receptor Binding Assay
Wash Buffer (for use with Brandel Cell Harvester):
30 liters (L) of 50 mM Tris, pH 7.7: Dissolve 1 81.7 g Tris base in 4 L deionized water at room temperature. Adjust pH to 7.7 with 6N HCl and Q.S. to 30 L.
50 mM Tris-Cl, 5 mM MgCl2, 5 mM dithiothreitol, 0.14 mg/ml bacitracin, and 2 mg/ml bovine serum albumin (BSA).
1 liter of 5X stock buffer:
30.28 g Tris base per 800 ml deionized water, 5.08 g MgCl2 ·6H20, pH to 7.7 at room temperature with 6N HCl and Q.S. to 1 liter, store at 4° C.
250 ml working buffer (kept on ice):
50 ml of 5X stock buffer 0.1928 g dithiothreitol (5 mM), 35 mg bacitracin (0.14 mg/ml), and 0.5 g BSA (2mg/ml).
Unlabeled L-364,718 (nonpeptide ligand):
Unlabeled L-364,718 (N-(2,3-dihydro-1-methyl-2-oxo-5-phenyl-1H-1,4-benzodiazepin-3-yl)-1H-indole-2-carboxamide) (300 nM final concentration) is used to define nonspecific binding. A […] solution is made in absolute ethanol and stored at -70° C. Aliquots are diluted 100-fold in the assay.
A Sprague-Dawley rat is sacrificed by asphyxiation with carbon dioxide and the pancreas removed. The tissue is immersed in cold wash buffer and carefully trimmed of fat, connective tissue, blood vessels, blotted and weighed. The tissue is homogenized in a Sorvall SS-34 centrifuge tube in 50 volumes of wash buffer using a Polytron at setting 7 for 15 seconds. The tissue is centrifuged (Sorvall SS-34) at 19,000 rpm for 10 min. The supernatant is poured off and the pellet resuspended in sufficient buffer to obtain a concentration of 40 mg tissue wet weight/mi. Separate aliquots (2.3ml) are placed in each of 8 centrifuge tubes and centrifuged as before. The supernatants are poured off and the pellets stored at -70° C. Stored pellets are sufficient for the assay of 160 tubes and are stable for 1-2 months.
During the assay the stored membranes are resuspended in 40 ml of assay buffer by scraping the pellet off the wall of the centrifuge tube and washing it into a teflon-glass homogenizer. Membranes are resuspended by 5 passes with the teflon pestle and the membranes stored on ice until ready for use.
Preparation of Compounds:
Compounds of the present invention to be tested are prepared in DMSO (dimethyl sulfoxide) or in assay buffer. The majority of compounds of the present invention active as CCK antagonists generally require DMSO for complete solubility. Approximately 2-3 mg of compound is weighed directly into a 13×100 mm test tube and sufficient DMSO added to obtain a working stock solution at a concentration 100 fold greater than the highest concentration being tested in the assay. A total of 10 μl of each concentration of drug is added into a final volume of 1 ml to yield a 100 fold dilution of the working stock solution. Control binding tubes ("totals and nonspecifics") are also treated with 10 μl DMSO.
^3 H-L-364,718 is obtained from New England Nuclear (Cat. #971) and is used as supplied. […]

gastrin receptor = molecular target: T2, gastrin receptor (Cavia porcellus, UniProt H0VZC5); assay: Gastrin Receptor Binding Assay; details: guinea pig gastric glands, displacement of 125I-(Leu-15)-Gastrin, 25° C., 30 minutes; read-out: IC50 Gastrin (In Vitro Binding Data)
T2 construct: The fundic mucosa is gently scraped off the submucosa; from tissue; host or cells: guinea pig (Hartley) fundic mucosa gastric glands, collagenase-dispersed
T2 sequence (H0VZC5 1-426): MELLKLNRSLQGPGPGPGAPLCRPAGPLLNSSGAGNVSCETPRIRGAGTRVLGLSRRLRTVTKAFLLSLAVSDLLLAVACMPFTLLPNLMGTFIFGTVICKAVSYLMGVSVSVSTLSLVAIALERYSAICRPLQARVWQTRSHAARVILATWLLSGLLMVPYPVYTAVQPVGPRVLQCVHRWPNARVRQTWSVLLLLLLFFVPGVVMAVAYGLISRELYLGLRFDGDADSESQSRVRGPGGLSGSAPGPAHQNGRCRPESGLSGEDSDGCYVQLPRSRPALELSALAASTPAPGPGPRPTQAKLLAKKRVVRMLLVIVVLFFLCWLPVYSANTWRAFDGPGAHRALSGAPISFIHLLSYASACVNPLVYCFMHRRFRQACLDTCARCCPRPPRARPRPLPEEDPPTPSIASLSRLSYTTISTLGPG
Text: as §1
Gastrin Receptor Binding Assay
Phosphate Buffered Saline (PBS): 8.743 g NaCl, 523 mg K2 HPO4 and 76.8 mg NaH2 PO4 is dissolved in 900 ml of deionized water, the pH of the solution is adjusted to 7.3 with 5N NaOH, then Q.S. to 1 L.
Buffer A: Powdered Basal Medium Eagle (BME) containing Earle's Salts, L-glutamine and 25 mM HEPES without bicarbonate (Sigma Cat. number B 4391) sufficient to make 3 liters is stirred into 2.7 L of deionized water, […] sodium bicarbonate is added and the mixture stirred to give dissolution. The solution is then equilibrated with 95% O2 /5% CO2 gas followed by titration to a pH of 7.4 with NaOH, then Q.S. to 3 L.
Buffer B: 18.75 mg of collagenase A and 25 mg of pH neutralized BSA is dissolved in 25 ml of Buffer A.
Buffer C: 0.3 g of BSA is dissolved in 300 ml of Buffer A.
Buffer D: 6.25 mg Bacitracin is dissolved in 25 ml of Buffer A.
A guinea pig (Hartley Strain) weighing 150-200 grams, is sacrificed by CO2 asphyxiation and the stomach immediately excised, cut along the greater curvature, cleaned out and immediately immersed in a beaker containing cold PBS, pH 7.3, to insure thorough cleaning. The fundic mucosa is gently scraped off the submucosa and added to a preweighed 50 ml plastic centrifuge tube containing 30 ml of cold Buffer A. The weight of the plastic centrifuge tube containing the buffer is then subtracted from the combined weight of the mucosa and the buffer-containing tube to give the weight of the mucosa. The weight of the mucosa thus determined is recorded for later calculations. The mucosa is then washed twice in Buffer A. After the final wash, the tissue is minced and is placed in a 100-ml glass beaker containing about 1.0 ml of Buffer A, and washed twice again by repeated centrifugation at 50Xg for 5 minutes each and aspiration of supernatant. The washed tissue fragments are then added to a glass Erlenmeyer flask containing 25 ml of Buffer B and incubated in a Dubnoff shaking water bath at 37° C. for 30 minutes in a 95% O2 /5% CO2 atmosphere. After the incubation, the digested tissue fragments in the Collegenase-buffer solution are triturated, filtered through a 200-micron nylon mesh and centrifuged at 50Xg for 5 minutes. The supernatant is aspirated and discarded, the tissue washed 2X in Buffer C, resuspended in same buffer, incubated in a 37° C water bath in an atmosphere of 95% O2 /5% CO2 for 5 minutes, and centrifuged. The pelleted glands are suspended in Buffer D at a desired concentration of 2×10^5 glands/ml to use in the receptor binding assay.
Assay Buffer: Buffer A as above
^125 l-(Leu-15)-Gastrin: 100 microcurie dissolved in 2.0 ml of Buffer A to make 50 microcurie/ml; stored in 50 μl aliquots under Argon at -70° C.
^125 I-(15-methionine)-Human Gastrin: 50 microcurie/ml in deionized water, stored in 50 μl aliquots as above.
(Leu 15)-Gastrin 17:5.2 mg of (Leu-15)- Gastrin is dissolved in 10 ml of Buffer A and stored in 30 μl aliquots. At the time of assay a 1:10 dilution is made and 10 μl/assay tube is used. […]

Cc1cccc(NC(=O)N2C[C@H](OCc3ccccc3)C[C@H]2C(=O)N2CCc3c([nH]c4ccccc34)C2)c1 [Example 1, 2-[(N-(3-methyl)phenylcarbamoyl-4(R)-benzyloxy)-L-prolyl]-1,2,3,4-tetrahydro-9H-pyrido[3,4-b]indole]
IC50 (CCK-A receptor): 9 µM
IC50 (gastrin receptor): > 300 µM

COc1ccc(NC(=O)N2C[C@H](OCc3ccccc3)C[C@H]2C(=O)N2CCc3c([nH]c4ccccc34)C2)cc1 [Example 2, 2-[(N-(4-methoxy)phenylcarbamoyl-4(R)-benzyloxy)-L-prolyl]-1,2,3,4-tetrahydro-9H-pyrido[3,4-b]indole]
IC50 (CCK-A receptor): 15 µM
IC50 (gastrin receptor): 120 µM

Cc1cccc(NC(=O)N2c3ccccc3C[C@H]2C(=O)N2CCc3c([nH]c4ccccc34)C2)c1 [Example 3, 2-[(N-(3-methyl)phenylcarbamoylindolin-2(S)-yl)carbonyl]-1,2,3,4-tetrahydro-9H-pyrido[3,4-b]indole]
IC50 (CCK-A receptor): 30 µM
IC50 (gastrin receptor): > 300 µM

O=C([C@H]1CCCN1C(=O)Nc1ccc2ccccc2c1)N1CCc2c([nH]c3ccccc23)C1 [Example 4, 2-(N-naphth-2-ylcarbamoyl-D-prolyl)-1,2,3,4-tetrahydro-9H-pyrido[3,4-b]indole]
IC50 (CCK-A receptor): 7.3 µM
IC50 (gastrin receptor): 10.3 µM

Cc1cccc(NC(=O)N2CCC[C@@H]2C(=O)N2CCc3c([nH]c4ccccc34)C2)c1 [Example 5, 2-[N-(3-methyl)phenylcarbamoyl-D-prolyl]-1,2,3,4-tetrahydro-9H-pyrido[3,4-b]indole]
IC50 (CCK-A receptor): 37 µM
IC50 (gastrin receptor): > 30 µM

Cc1cccc(NC(=O)N2CCC[C@H]2C(=O)N2CCc3c([nH]c4ccccc34)C2)c1 [Example 6, 2-[N-(3-methyl)phenylcarbamoyl-L-prolyl]-1,2,3,4-tetrahydro-9H-pyrido[3,4-b]indole]
IC50 (CCK-A receptor): 37 µM
IC50 (gastrin receptor): > 30 µM

Cc1cccc(NC(=O)N2C[C@H](OCc3ccccc3)C[C@H]2C(=O)N[C@H](CC(C)C)C(=O)N[C@H](CC(=O)O)C(N)=O)c1 [Example 7]
IC50 (CCK-A receptor): 3 µM
IC50 (gastrin receptor): 2.6 µM

O=C(O)c1ccccc1NC(=O)[C@@H]1CCCN1C(=O)[C@@H]1C[C@@H](OCc2ccccc2)CN1C(=O)Nc1ccc2ccccc2c1 [Example 9, 2-[(N-(4(R)-benzyloxy-N-naphth-2-ylcarbamoyl-L-prolyl)-L-prolyl)amino]benzoic acid] ({βNA-CO}-[Hyp](Bn)-Pro-[2Abz]-OH)
IC50 (gastrin receptor): 0.13 µM

O=C(O)c1ccccc1NC(=O)[C@@H]1CCCN1C(=O)[C@@H]1C[C@@H](OCc2ccccc2)CN1C(=O)Nc1cccc2ccccc12 [Example 11, 2-[(N-(4(R)benzyloxy-N-naphth-1-ylcarbamoyl-L-prolyl)-L-prolyl)amino]benzoic acid]
IC50 (gastrin receptor): 0.2 µM
